# Measurements as given in ChEMBL document CHEMBL5223170, “Potent and Selective Biaryl Amide Inhibitors of Hematopoietic Progenitor Kinase 1 (HPK1)” (ACS Med Chem Lett, 2023).
# What was measured:
# physchem = conditions: SGF buffer
# in vitro = conditions: human, liver microsomes
compound,measurement,setting,value
COc1cccc(F)c1-c1nccc(C(=O)Nc2cc(F)c3c(cnn3C)c2N2C[C@@H](N)C[C@H]2CO)n1,solubility,physchem,350 µg/mL
same,CLint scaled at 0.5 h,in vitro,> 18.3 mL/min/kg
